Test results from patent publication US20110064669A1, “USE OF GALANIN IN A METHOD OF TREATING NEURODEGENERATIVE DISEASES OR CONDITIONS” (HOWARD FLOREY INSTITUTE OF EXPERIMENTAL PHYSIOLOGY AND …, priority 2007, published 2011).
Entries after “also recorded” stand apart in the source; their conditions may differ. No end group written: not given here.

Assays:
cuprizone demyelination = conditions: exogenous LIF, wild-type litter mates; cited from earlier work
mature oligodendrocytes = test: Western blot of galanin in concentrated media of mature oligodendrocytes; assay type: cell-based, rat; conditions: LIF 100 ng/ml, 48 hours, SATO plus insulin
Method: (§1) Translation of regulated cytokine and neuropeptide mRNA species into peptides/proteins was confirmed. Mature oligodendrocytes (as above) were plated in 10 cm dishes in SATO plus insulin and added LIF (100 ng/ml) to half the dishes for 48 hours. […] LIF-dependent galanin production in concentrated media from the OC cell line CG4 (FIG. 11) was confirmed. […] All Western blots were performed in triplicate from independent experiments. The LIF-dependent induction of a secretory phenotype in OC was confirmed by galanin immunocytochemistry of OC cultured in insulin +/− LIF for 48 hours (FIG. 13).

[1] = system: cultured primary rat astrocytes or an n-mye immortalized astrocytic cell line; test: Galanin production in response to LIF in astrocytes; assay type: cell-based
OC = test: Galanin immunocytochemistry of OC cultured in insulin +/- LIF; assay type: cell-based, rat; conditions: LIF-treated versus untreated OC, 48 hours
Method: as §1

[2] = system: cultured primary oligodendrocytes; test: Affymetrix gene chip analysis of LIF-induced mRNA in cultured primary oligodendrocytes; assay type: cell-based, rat; conditions: 8 hours of LIF exposure, versus NT3, insulin or Sato only
Method: In order to assess mRNA induction promoted by LIF signaling in oligodendrocytes, an Affymetrix array analysis was conducted of cultured primary oligodendrocytes. A2B5 positive, O1 negative oligodendrocyte progenitor cells were isolated by sequential immunopanning from P6 rat optic nerves. After expansion in culture (2 passages, 11 days) in Sato medium in the presence of insulin, platelet-derived growth factor (PDGF) and neurotrophin-3 (NT3) (no CNTF or LIF), the cells were matured by 48 hours of PDGF withdrawal. The NT3 was also withdrawn for this time-period but insulin was maintained. In order to determine gene expression profiles induced by various cytokines, the matured cells were then exposed to one of four conditions for 8 hours: Sato alone, Sato plus insulin, Sato plus LIF, Sato plus NT3. Subsequently, the cells were harvested, mRNA isolated and processed for Affymetrix gene chip hybridization (Rat 230 2.0). The experiments were conducted as independent triplicates. […] The 965 genes identified were subjected to cluster analysis. Distinct clusters of genes were regulated by insulin and LIF (FIG. 9) but not NT-3.

[3] = system: oligodendrocyte progenitors or mature oligodendrocytes; test: Real-time PCR confirmation of LIF-regulated genes in oligodendrocyte progenitors and mature oligodendrocytes; assay type: cell-based, rat; conditions: LIF for 5 or 24 hours
Method: For each of these six regulated genes, independent confirmation was conducted by real-time PCR. Either dividing oligodendrocyte progenitors or mature oligodendrocytes (as above) were exposed to LIF for either 5 or 24 hours, and measured gene induction against baseline (independent baseline cultures for each comparison). […] FIG. 10 illustrates typical results for secretogranin 2 and galanin.

EAE = conditions: cited from earlier work
[4] = system: post-mitotic OC (primary rat OPC matured by PDGF withdrawal); test: Oligodendrocyte survival assay (calcein / ethidium homodimer live-dead count); assay type: cell-based
Method: Whether or not galanin itself is a survival factor for oligodendrocytes in vitro was determined. Primary rat OPC in culture were matured for 48 hours by PDGF withdrawal in the presence of insulin, passaged into poly-1-lysine coated 24 well-plates at a density of 200 cells/well in Sato medium alone or Sato medium supplemented with various concentrations of recombinant rat galanin (Peninsula Biosciences).
Twenty wells/condition were counted in each survival assay and results were verified in four independent experiments using separate batches of primary cells. All counts were performed by an investigator blinded to the experimental condition.

| Substance | severity of demyelination (cuprizone demyelination) | galanin production in concentrated media (mature oligodendrocytes) | induction of galanin production [1] | galanin staining of OC (OC) | regulation of genes (secretogranin II, cytokines/neuropeptides incl. galanin) on gene chip [2] | gene induction against baseline at the RNA level (six genes incl. secretogranin 2 and galanin) [3] | reduction in density of oligodendrocytes within the spinal cord in established EAE (EAE; MBP-lacZ mice, LIF administration) | EAE severity (EAE; recombinant LIF administration) | OC survival in vitro ([4]; 1 nM galanin in Sato medium, versus Sato alone (nil)) | OC survival, galanin plus LIF versus galanin alone (synergy) ([4]; Sato medium) | OC survival in vitro ([4]; higher galanin concentrations (other than 1 nM), versus baseline (nil)) |
| --- | --- | --- | --- | --- | --- | --- | --- | --- | --- | --- | --- |
| leukemia inhibitory factor [LIF] | reduce the severity of demyelination | Induction of galanin production was observed | not observed | intense polar galanin staining | significantly regulated | confirmed to be regulated | fully rescued this phenotype | reduces EAE severity |  |  |  |
| galanin (GWTLNSAGYLLGPHAIDNHRSFSDKHGLT; ends and bridges not checked; UniProt P10683 33-61, looked up) [29 amino acid neuropeptide; recombinant rat galanin (Peninsula Biosciences) used in the survival assay] |  |  |  |  |  |  |  |  | highly significant survival effect; also recorded: increased | not synergistic with LIF | abolished; also recorded: No other galanin concentration is significantly different from baseline |
